Test results taken from publication PMC7897990, “TriTOX: A novel Trichomonas vaginalis assay platform for high-throughput screening of compound libraries” (International Journal for Parasitology: Drugs and Drug …, 2021).
“Also recorded” adds a separate entry of the source. Read-outs that look alike come from different tables or passages of the source.

Tests used:
[1] = test system: nontumorigenic neonatal foreskin fibroblast (NFF) cell line
[2] = test system: T. vaginalis; assay: Medium-throughput (MTS) confirmatory dose-response growth assay, T. vaginalis; type: cell-based, Trichomonas vaginalis; settings: for activity against T. vaginalis in MTS, in words: 10-point dilution series, 96-well; for activity against T. vaginalis in MTS, in words / IC50: 48 h; for IC50: 96-well, 10,000 cells/mL in 50 μL, mean ± SEM, >10 = no appreciable activity at highest dose; for species-specificity T. vaginalis vs T. foetus in MTS: comparison of MTS IC50 in both species
Method: (§1) For microtiter plate assays, trichomonads were grown in anaerobic conditions within GasPak EZ anaerobe pouches with fresh anaerobic sachets. Working reagent of the chromogen was phenol red (Sigma) in a 1% w/v working solution in phosphate buffered saline (PBS), which was filter sterilised. Chromogen absorbance was monitored at 570 nm on an absorbance microplate reader after plates were allowed to equilibrate in atmospheric conditions at room temperature for at least 5 min.
(§2) After absorbances were measured, data were processed as followed unless indicated otherwise in the text. […] Prism 8 (GraphPad) was used to plot dose-response curves and calculate IC50 values, using a least squares regression, log[inhibitor] vs normalised response (variable slope, four parameters) model. Where replicate plates were used, data for dose-response curves were plotted as the mean±SD of these replicates.
(§3) A selection of 17 compounds assayed in the high-throughput screen (HTS) for T. vaginalis which were available through BioAustralis were obtained for validation of inhibitory in/activity in our optimised medium-throughput format. For this, a 10-point serial dilution was used for drug-susceptibility testing to calculate IC50 values of ‘hit’ compounds. Mtz was used as a positive control. Each screen was performed with 3 technical replicates and a minimum of 2 biological replicates in both T. vaginalis and T. foetus using assay conditions of seeds of 10,000 cells/mL in 50 μL, with absorbance measured at 48 h. Dose response curves and IC50 were calculated for each compound as described above in Section 2.3.

[3] = test system: Trichomonas vaginalis G3 trophozoites; assay: microbe, parasite or virus in culture; settings: 48 h
[4] = test system: T. foetus; assay: Medium-throughput (MTS) confirmatory dose-response growth assay, T. foetus; type: cell-based, Tritrichomonas foetus; settings: 48 h; for IC50: 96-well, 10,000 cells/mL in 50 μL, mean ± SEM, >10 = no appreciable activity at highest dose; for activity against T. foetus in MTS, in words: 10-point dilution series, 96-well
Method: as §1, §2, §3

[5] = test system: Trichomonas vaginalis G3 trophozoites; settings: for T. vaginalis HTS result in words / T. vaginalis HTS results: 384-well, 25 μL, 10,000 cells/mL, 48 h, biological duplicates; for T. vaginalis HTS result in words: hit = >50% inhibition; for T. vaginalis HTS results: 10% chromogen, single concentration; for T.vaginalis_Absorbance_Rep1: replicate 1, raw absorbance; for T.vaginalis_Absorbance_Rep2: replicate 2, raw absorbance
[6] = NFF fibroblast screen at 5 µg/mL, A = active, I = inactive
[7] = read-out: T.vaginalis_%inb_Rep1
[8] = read-out: T.vaginalis_%inb_Rep2
[9] = HTS, parasite screen at 1 µg/mL, replicate 1
[10] = HTS, parasite screen at 1 µg/mL, replicate 2
[11] = HTS, parasite screen at 1 µg/mL

Structure (SMILES) | activity against T. vaginalis in MTS, in words [2] | IC50 ([2]; Trichomonas vaginalis) [µM] | species-specificity T. vaginalis vs T. foetus in MTS [2] | inhibition of growth at 1 µg/mL [3, 7] [%] | inhibition of growth at 1 µg/mL [3, 8] [%] | IC50 ([4]; Tritrichomonas foetus) [µM] | T. vaginalis HTS result in words [5] | IC50 [2] [µM] | IC50 [4] [µM] | further results
N#Cc1cn([C@@H]2O[C@H](CO)[C@@H](O)[C@H]2O)c2ncnc(N)c12 [Toyocamycin, toyocamycin, reference compound] | true positives | 0.3 ± 0.01 | remained active against both T. vaginalis and T. foetus | 69.9 | 77.5 | 2.4 ± 0.7 | supported the anti-trichomonal activity |  |  | NFF_Activity [1, 6]: I (otherwise these were reported as inactive (I))
CCC(=O)CCCCC[C@@H]1NC(=O)[C@H]2CCCCN2C(=O)[C@H]([C@@H](C)CC)NC(=O)[C@H](Cc2cn(OC)c3ccccc23)NC1=O [Apicidin, apicidin] | confirmed active; also recorded: micromolar IC50 values | 1.2 ± 0.1 |  |  |  | 1.9 ± 0.2 | inactive in both T. vaginalis HTS replicates |  |  | activity against T. foetus in MTS, in words [4]: micromolar IC50 values; T. vaginalis HTS results [5]: I
CC(C=CC1OC(=O)C=CC1C)=CC(C)CC=CC(C)=CC(C)C(=O)C(C)C(O)C(C)CC(C)=CC(=O)O (centres unmarked) [Leptomycin A, leptomycin A] | true negatives |  |  |  |  |  |  | > 10 | > 10 | T. vaginalis HTS results [5]: I
CCC(=C/[C@H](C)C/C=C/C(C)=C/[C@@H](C)C(=O)[C@@H](C)[C@H](O)[C@@H](C)C/C(C)=C/C(=O)O)/C=C/[C@@H]1OC(=O)C=C[C@@H]1C [Leptomycin B, leptomycin B] | no activity | > 10 |  |  |  | > 10 |  |  |  | 
Nc1ncnc2c1ccn2[C@@H]1O[C@H](CO)[C@@H](O)[C@H]1O [Tubercidin, tubercidin] | true positives | 2.4 ± 0.1 | selective activity against T. vaginalis but not T. foetus | 63.8 | 76 | > 10 |  |  |  | NFF_Activity [1, 6]: A (active (A) compounds having >25% inhibitory activity)
CC(C=CC(=O)NOC1OC(CO)C(O)C(O)C1O)=CC(C)C(=O)c1ccc(N(C)C)cc1 (centres unmarked) [Trichostatin C, trichostatin C, reference compound] | true negatives |  |  |  |  |  |  | > 10 | > 10 | T. vaginalis HTS results [5]: I; T.vaginalis_%inb_Rep1 [5, 9]: 10.28%; T.vaginalis_%inb_Rep2 [5, 10]: 10.24%
CC(/C=C/C(=O)NO)=C\[C@@H](C)C(=O)c1ccc(N(C)C)cc1 [Trichostatin A, trichostatin A, reference compound] |  |  |  |  |  |  | supported the anti-trichomonal activity | 0.22 ± 0.06 | 0.048 ± 0.006 | NFF_Activity [1, 6]: I (otherwise these were reported as inactive (I)); activity against T. vaginalis in MTS, in words ([2]; listed as TSA): true positives; T.vaginalis_%inb_Rep1 [5, 9]: 71.95%; T.vaginalis_%inb_Rep2 [5, 10]: 67.89%
CCC(C)CC1CCC(O)(C(C)(O)C(=O)NC2C(=O)N3NCCCC3C(=O)N(O)C(C)C(=O)NCC(=O)N3NCCCC3C(=O)N(O)C(C)C(=O)OC2C(C)C)OC1C (centres unmarked) [L 156602] | true positives |  |  |  |  |  |  | 0.059 ± 0.004 | 0.44 ± 0.18 | 
Cn1ncnc2c(=O)n(C)c(=O)nc1-2 [Toxoflavin, toxoflavin, reference compound] | confirmed active |  | remained active against both T. vaginalis and T. foetus |  |  |  | partial hits | 3.1 ± 1.7 | 4.1 ± 0.9 | NFF_Activity [1, 6]: A (active (A) compounds having >25% inhibitory activity); T.vaginalis_%inb_Rep1 [5, 9]: 5.72%; T.vaginalis_%inb_Rep2 [5, 10]: 100.00%
CSC[S@+]([O-])C[C@H](CO)NC(=O)/C=C/c1c(C)[nH]c(=O)[nH]c1=O [Sparsomycin, sparsomycin] | true positives | 2.3 | selective activity against T. vaginalis but not T. foetus |  |  | > 10 |  |  |  | 
O=[N+]([O-])c1ncc[nH]1 [Azomycin, azomycin] | confirmed active; also recorded: inconsistent activity | 9.7 ± 5.5 |  |  |  | 8.6 ± 4.3 | inactive |  |  | T. vaginalis HTS results [5]: I
CCCCC[C@@H](O)[C@H]1C(=O)O[C@H](C)[C@@H](O)/C=C/C=C/C=C/C=C/C=C(\C)[C@@H](O)C[C@H](O)C[C@H](O)C[C@H](O)C[C@H](O)C[C@H](O)C[C@@H]1O [Filipin III] |  |  |  | 15.8 | 12.6 |  |  |  |  | NFF_Activity ([1]; NFF_NS1 screen at 5 µg/mL): I (otherwise these were reported as inactive (I)); T.vaginalis_Absorbance_Rep1 [5, 11]: 1.003; T.vaginalis_Absorbance_Rep2 [5, 11]: 0.794
CCCCc1ccc(C(=O)O)nc1 [Fusaric acid] |  |  |  | 13.9 | 15.8 |  |  |  |  | NFF_Activity ([1]; NFF_NS1 screen at 5 µg/mL): I (otherwise these were reported as inactive (I)); T.vaginalis_Absorbance_Rep1 [5, 11]: 0.976; T.vaginalis_Absorbance_Rep2 [5, 11]: 0.881
CC[C@@H]1C[C@H]2CC[C@H](O2)[C@H](C)C(=O)O[C@@H](C)C[C@@H]2CC[C@@H](O2)[C@@H](C)C(=O)O[C@H](CC)C[C@H]2CC[C@H](O2)[C@H](C)C(=O)O[C@@H](C)C[C@@H]2CC[C@@H](O2)[C@@H](C)C(=O)O1 [Dinactin] |  |  |  | 8.56 | 8.17 |  |  |  |  | NFF_Activity ([1]; NFF_NS1 screen at 5 µg/mL): I (otherwise these were reported as inactive (I)); T.vaginalis_Absorbance_Rep1 [5, 11]: 0.868; T.vaginalis_Absorbance_Rep2 [5, 11]: 0.733
COC(=O)c1ccc(CCCCCCCCCCc2ccc(C(=O)OC)nc2)cn1 [Penicolinate A, penicolinate A] | true positives |  | selective activity against T. vaginalis but not T. foetus |  |  |  |  | 2.7 ± 0.9 |  | activity against T. foetus in MTS, in words [4]: weak activity; T.vaginalis_%inb_Rep1 ([5]; HTS replicate 1, parasite screen 1 µg/mL): 78.85%; T.vaginalis_%inb_Rep2 ([5]; HTS replicate 2, parasite screen 1 µg/mL): 85.50%
COc1ccc2cc1Oc1cc(ccc1O)[C@H](O)[C@]13SS[C@@]4(C(=O)N1C)[C@H](O)C1=COC=C[C@H](OC2=O)[C@H]1N4C3=O [Emestrin, emestrin, reference compound] | inactive |  |  |  |  |  | partial hits | > 10 | 7.3 ± 3.3 | NFF_Activity ([1]; NFF_NS1 screen at 5 µg/mL): A (active (A) compounds having >25% inhibitory activity); activity against T. foetus in MTS, in words [4]: inconsistent between biological replicates; T.vaginalis_%inb_Rep1 [5, 9]: 12.22%; T.vaginalis_Absorbance_Rep1 [5, 11]: 0.943; T.vaginalis_%inb_Rep2 [5, 10]: 63.12%; T.vaginalis_Absorbance_Rep2 [5, 11]: 1.619
